Data: patent publication US20110136745A1, “METHOD OF SELECTING SOYBEANS WITH ENHANCED BIOACTIVITY AND COMPOSITIONS FOR REDUCING CANCER CELL VIABILITY” (Monsanto Technology LLC., priority 2008, published 2011)

Tested on: L1210 leukemia cells
Experiment: Cytotoxicity assay on L1210 leukemia cells (Cell Counting Kit-8)
Settings: positive control at 1.0 μM

Which “inhibition of L1210 leukemia cell growth” value does the source give for `COc1cc([C@@H]2c3cc4c(cc3[C@@H](O[C@@H]3O[C@@H]5CO[C@@H](C)O[C@H]5[C@H](O)[C@H]3O)[C@H]3COC(=O)[C@H]23)OCO4)cc(OC)c1O` [etoposide, Etoposide] here?
The value was 90.5%.
